Columns and labels:
[1] = target: T1, Alpha-2A adrenergic receptor (Homo sapiens) (UniProt P08913); experiment: Adrenergic alpha2A Eurofins-Panlabs radioligand binding assay; set-up: ligand concentration 1 nM, non-specific ligand with concentration 10 µM WB-4101, incubation time 60 min, incubation temperature 25 °C; details: Compound concentration 10.0 uM
T1 sequence (whole entry): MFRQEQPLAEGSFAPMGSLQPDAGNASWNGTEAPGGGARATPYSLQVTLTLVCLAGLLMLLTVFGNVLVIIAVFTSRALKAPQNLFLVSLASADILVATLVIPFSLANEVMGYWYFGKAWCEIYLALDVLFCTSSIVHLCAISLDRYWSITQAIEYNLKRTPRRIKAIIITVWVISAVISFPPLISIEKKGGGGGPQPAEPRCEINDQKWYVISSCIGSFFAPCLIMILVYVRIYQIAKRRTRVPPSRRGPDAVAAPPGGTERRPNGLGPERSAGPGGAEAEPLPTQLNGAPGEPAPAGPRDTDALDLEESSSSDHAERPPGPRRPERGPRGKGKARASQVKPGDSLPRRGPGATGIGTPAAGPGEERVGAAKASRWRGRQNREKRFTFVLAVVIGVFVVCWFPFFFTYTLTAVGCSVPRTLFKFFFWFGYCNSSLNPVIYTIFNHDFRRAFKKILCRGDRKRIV

[2] = system: Fibroblast growth factor receptor 3 (Homo sapiens), P22607 [K650E]; experiment: FGFR3 K650E Kinase screen; details: Compound concentration 1.0 uM
[3] = target: T2, Serine/threonine-protein kinase Chk1 (Homo sapiens) (UniProt O14757); experiment: CHEK1 (CHK1) Kinase screen; details: Compound concentration 1.0 uM
T2 sequence (whole entry): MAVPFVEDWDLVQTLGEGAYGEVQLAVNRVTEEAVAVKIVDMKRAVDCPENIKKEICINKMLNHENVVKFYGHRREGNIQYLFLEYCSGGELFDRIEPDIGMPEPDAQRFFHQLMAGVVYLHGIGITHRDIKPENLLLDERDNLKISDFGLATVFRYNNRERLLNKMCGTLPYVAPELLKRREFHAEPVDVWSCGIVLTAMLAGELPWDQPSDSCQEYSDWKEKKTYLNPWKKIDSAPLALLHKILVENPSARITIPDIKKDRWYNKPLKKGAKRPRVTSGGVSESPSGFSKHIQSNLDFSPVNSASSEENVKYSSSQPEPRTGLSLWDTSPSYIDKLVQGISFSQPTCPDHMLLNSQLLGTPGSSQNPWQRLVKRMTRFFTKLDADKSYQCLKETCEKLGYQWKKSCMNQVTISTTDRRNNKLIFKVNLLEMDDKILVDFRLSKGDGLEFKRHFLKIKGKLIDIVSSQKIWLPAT

[4] = target: Macrophage colony-stimulating factor 1 receptor (Homo sapiens) (UniProt P07333); experiment: CSF1R (FMS) Kinase screen; details: Compound concentration 1.0 uM
[5] = target: NT-3 growth factor receptor (Homo sapiens) (UniProt Q16288); experiment: NTRK3 (TRKC) Kinase screen; details: Compound concentration 1.0 uM
[6] = target: Mitogen-activated protein kinase 1 (Homo sapiens) (UniProt P28482); experiment: MAPK1 (ERK2) Kinase screen; details: Compound concentration 1.0 uM
[7] = target: T3, Protein kinase C epsilon type (Homo sapiens) (UniProt Q02156); experiment: PRKCE (PKC epsilon) Kinase screen; details: Compound concentration 1.0 uM
T3 sequence (whole entry): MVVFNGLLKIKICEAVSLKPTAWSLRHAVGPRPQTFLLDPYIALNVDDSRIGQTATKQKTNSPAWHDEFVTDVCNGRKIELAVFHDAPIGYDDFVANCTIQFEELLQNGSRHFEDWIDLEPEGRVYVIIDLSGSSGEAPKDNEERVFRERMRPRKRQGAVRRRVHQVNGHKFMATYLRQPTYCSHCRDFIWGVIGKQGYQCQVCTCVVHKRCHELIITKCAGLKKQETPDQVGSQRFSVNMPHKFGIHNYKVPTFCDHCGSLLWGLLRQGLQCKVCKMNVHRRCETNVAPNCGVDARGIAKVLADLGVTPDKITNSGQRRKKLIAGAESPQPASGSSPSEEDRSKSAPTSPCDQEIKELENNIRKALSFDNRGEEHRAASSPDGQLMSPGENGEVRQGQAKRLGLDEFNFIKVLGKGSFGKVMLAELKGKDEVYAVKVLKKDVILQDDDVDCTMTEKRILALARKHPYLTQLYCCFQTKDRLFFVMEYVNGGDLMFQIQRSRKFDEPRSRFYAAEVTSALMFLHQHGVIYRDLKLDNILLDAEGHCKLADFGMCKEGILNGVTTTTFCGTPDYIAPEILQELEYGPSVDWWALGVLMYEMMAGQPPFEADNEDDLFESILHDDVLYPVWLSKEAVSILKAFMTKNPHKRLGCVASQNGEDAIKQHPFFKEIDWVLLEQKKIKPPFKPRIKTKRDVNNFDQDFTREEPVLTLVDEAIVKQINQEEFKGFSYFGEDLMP

Caspase-8 (Homo sapiens) = Caspase-8 (Homo sapiens) (UniProt Q14790); experiment: Peptidase, CASP8 (Caspase 8) Eurofins-Panlabs enzyme assay; details: Compound concentration 10.0 uM
[8] = target: Casein kinase I isoform delta (Homo sapiens) (UniProt P48730); experiment: CSNK1D (CK1 delta) Kinase screen; details: Compound concentration 1.0 uM
[9] = target: 5-hydroxytryptamine receptor 6 (Homo sapiens) (UniProt P50406); experiment: Inhibition of Serotonin (5-Hydroxytryptamine) 5-HT6 at 10 µM in the Eurofins-Panlabs radioligand binding assay (Eurofins_assay_272200); details: Compound concentration 10.0 uM
[10] = target: Phosphatidylinositol 3-kinase catalytic subunit type 3 (Homo sapiens) (UniProt Q8NEB9); experiment: PIK3C3 (hVPS34) Kinase screen; details: Compound concentration 1.0 uM
[11] = target: Mast/stem cell growth factor receptor Kit (Homo sapiens) (UniProt P10721); experiment: KIT Kinase screen; details: Compound concentration 1.0 uM
[12] = target: Cyclin-dependent kinase 5/CDK5 activator 1 (Homo sapiens) (UniProt Q00535+Q15078); experiment: CDK5/p35 Kinase screen; assay type: protein-complex assay; details: Compound concentration 1.0 uM
[13] = target: Serine/threonine-protein kinase pim-1 (Homo sapiens) (UniProt P11309); experiment: PIM1 Kinase screen; details: Compound concentration 1.0 uM

Measured: inhibition

Casein kinase I isoform delta (Homo sapiens), sequence (P48730 whole entry, looked up, canonical isoform): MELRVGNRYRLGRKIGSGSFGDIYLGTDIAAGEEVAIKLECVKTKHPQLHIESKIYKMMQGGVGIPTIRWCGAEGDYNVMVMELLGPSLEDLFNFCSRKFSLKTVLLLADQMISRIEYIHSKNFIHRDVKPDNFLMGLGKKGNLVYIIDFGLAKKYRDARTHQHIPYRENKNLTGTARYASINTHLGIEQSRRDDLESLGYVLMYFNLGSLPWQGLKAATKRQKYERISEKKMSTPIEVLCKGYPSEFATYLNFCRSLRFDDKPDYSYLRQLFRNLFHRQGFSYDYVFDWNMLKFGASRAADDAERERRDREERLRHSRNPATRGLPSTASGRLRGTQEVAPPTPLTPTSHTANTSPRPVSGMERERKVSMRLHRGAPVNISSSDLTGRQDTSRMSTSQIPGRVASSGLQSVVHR
NT-3 growth factor receptor (Homo sapiens), sequence (Q16288 32-839 limits assumed): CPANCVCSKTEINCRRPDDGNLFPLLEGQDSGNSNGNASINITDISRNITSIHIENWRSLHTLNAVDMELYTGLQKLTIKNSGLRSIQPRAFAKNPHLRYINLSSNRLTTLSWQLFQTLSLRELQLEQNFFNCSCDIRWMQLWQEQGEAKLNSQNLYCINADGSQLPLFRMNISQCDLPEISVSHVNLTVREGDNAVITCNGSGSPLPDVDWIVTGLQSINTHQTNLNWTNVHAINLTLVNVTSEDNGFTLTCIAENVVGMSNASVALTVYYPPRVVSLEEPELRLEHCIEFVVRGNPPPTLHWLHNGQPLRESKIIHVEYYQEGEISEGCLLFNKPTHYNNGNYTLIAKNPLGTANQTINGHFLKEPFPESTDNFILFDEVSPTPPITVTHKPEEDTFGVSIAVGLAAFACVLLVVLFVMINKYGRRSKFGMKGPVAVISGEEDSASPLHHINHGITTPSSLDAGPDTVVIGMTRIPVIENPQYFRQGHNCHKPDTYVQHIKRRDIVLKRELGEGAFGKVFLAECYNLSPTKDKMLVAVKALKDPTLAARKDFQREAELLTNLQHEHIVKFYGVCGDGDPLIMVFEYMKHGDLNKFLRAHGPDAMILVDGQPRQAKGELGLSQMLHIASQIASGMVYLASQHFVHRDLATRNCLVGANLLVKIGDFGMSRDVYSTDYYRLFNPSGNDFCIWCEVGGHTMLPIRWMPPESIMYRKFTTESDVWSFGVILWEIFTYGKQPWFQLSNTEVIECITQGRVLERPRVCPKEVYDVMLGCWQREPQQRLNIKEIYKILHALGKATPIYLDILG
Caspase-8 (Homo sapiens), sequence (Q14790 217-374 limits assumed): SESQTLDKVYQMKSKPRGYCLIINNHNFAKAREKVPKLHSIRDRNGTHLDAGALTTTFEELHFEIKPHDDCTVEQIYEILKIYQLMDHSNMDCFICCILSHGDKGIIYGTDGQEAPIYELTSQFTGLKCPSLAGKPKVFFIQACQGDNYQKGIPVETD
Caspase-8 (Homo sapiens), sequence (Q14790 385-479 limits assumed): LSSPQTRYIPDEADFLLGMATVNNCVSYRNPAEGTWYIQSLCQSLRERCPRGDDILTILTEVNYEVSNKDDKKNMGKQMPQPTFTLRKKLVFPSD
5-hydroxytryptamine receptor 6 (Homo sapiens), sequence (P50406 whole entry): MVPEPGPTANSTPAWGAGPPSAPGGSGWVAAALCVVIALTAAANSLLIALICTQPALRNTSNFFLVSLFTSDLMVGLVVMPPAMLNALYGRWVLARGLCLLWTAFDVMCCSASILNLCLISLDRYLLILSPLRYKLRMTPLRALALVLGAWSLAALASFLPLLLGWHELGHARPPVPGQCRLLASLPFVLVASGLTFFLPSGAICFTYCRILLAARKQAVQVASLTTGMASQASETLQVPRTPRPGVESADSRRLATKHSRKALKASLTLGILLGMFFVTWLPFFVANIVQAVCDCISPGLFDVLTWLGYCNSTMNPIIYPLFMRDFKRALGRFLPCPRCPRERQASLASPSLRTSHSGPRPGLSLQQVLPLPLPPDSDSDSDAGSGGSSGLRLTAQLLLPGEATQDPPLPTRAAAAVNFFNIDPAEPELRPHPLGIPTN
Serine/threonine-protein kinase pim-1 (Homo sapiens), sequence (P11309 whole entry, looked up): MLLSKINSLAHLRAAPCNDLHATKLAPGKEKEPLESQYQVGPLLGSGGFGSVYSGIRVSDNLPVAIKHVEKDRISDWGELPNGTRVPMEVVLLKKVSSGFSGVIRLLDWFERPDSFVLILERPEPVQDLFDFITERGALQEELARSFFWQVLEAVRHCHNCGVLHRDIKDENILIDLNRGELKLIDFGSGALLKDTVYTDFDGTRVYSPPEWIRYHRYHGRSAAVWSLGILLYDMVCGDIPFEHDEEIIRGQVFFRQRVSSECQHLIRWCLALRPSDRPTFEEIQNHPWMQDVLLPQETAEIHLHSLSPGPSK
Mast/stem cell growth factor receptor Kit (Homo sapiens), sequence (P10721 whole entry): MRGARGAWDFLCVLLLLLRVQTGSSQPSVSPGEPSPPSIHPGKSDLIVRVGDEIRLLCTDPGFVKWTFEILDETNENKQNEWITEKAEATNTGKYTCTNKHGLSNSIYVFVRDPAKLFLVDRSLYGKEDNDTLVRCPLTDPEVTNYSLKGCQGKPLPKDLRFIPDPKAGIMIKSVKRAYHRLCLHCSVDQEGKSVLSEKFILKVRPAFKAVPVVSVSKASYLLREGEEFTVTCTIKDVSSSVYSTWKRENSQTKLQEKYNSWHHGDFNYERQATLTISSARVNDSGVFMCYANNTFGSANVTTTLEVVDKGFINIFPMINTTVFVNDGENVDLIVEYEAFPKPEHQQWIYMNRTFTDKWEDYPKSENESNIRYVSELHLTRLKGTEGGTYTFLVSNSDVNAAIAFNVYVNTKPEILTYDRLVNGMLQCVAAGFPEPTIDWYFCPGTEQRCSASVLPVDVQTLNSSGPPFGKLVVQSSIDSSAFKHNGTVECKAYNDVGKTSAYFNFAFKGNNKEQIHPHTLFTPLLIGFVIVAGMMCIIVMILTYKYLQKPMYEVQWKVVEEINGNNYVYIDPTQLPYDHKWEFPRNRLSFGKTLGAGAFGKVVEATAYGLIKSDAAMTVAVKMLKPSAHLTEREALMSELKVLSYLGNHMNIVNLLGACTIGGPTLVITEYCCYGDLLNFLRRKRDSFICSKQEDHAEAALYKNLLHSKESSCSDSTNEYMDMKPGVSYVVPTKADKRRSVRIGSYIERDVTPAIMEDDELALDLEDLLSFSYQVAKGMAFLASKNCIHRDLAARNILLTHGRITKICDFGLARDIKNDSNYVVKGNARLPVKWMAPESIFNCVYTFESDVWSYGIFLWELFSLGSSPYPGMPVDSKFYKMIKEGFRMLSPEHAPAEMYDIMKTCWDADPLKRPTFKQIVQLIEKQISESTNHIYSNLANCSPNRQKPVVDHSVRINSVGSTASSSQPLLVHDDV
Fibroblast growth factor receptor 3 (Homo sapiens), P22607 [K650E], sequence (P22607 whole entry K650E): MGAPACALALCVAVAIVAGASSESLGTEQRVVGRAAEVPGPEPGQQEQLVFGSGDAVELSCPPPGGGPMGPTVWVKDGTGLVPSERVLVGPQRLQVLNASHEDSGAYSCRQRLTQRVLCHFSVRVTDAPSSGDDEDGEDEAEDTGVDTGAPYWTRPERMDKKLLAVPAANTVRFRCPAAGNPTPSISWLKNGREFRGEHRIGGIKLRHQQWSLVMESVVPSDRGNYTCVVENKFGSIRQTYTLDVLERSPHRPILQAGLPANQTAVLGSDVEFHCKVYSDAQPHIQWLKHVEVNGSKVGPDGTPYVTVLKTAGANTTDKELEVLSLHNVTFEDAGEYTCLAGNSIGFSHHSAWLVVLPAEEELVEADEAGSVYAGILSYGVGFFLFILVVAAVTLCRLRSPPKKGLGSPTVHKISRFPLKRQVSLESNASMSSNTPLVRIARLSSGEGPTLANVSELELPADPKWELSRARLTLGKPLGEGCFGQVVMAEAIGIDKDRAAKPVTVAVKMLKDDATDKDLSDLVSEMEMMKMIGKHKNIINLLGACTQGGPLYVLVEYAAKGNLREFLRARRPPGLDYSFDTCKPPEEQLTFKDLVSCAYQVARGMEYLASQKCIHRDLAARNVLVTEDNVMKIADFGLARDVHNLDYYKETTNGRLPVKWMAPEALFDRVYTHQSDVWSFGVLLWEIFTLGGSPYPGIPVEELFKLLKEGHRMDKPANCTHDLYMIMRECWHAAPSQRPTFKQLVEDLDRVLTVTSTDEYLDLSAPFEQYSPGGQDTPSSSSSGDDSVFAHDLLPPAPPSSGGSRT
Macrophage colony-stimulating factor 1 receptor (Homo sapiens), sequence (P07333 whole entry): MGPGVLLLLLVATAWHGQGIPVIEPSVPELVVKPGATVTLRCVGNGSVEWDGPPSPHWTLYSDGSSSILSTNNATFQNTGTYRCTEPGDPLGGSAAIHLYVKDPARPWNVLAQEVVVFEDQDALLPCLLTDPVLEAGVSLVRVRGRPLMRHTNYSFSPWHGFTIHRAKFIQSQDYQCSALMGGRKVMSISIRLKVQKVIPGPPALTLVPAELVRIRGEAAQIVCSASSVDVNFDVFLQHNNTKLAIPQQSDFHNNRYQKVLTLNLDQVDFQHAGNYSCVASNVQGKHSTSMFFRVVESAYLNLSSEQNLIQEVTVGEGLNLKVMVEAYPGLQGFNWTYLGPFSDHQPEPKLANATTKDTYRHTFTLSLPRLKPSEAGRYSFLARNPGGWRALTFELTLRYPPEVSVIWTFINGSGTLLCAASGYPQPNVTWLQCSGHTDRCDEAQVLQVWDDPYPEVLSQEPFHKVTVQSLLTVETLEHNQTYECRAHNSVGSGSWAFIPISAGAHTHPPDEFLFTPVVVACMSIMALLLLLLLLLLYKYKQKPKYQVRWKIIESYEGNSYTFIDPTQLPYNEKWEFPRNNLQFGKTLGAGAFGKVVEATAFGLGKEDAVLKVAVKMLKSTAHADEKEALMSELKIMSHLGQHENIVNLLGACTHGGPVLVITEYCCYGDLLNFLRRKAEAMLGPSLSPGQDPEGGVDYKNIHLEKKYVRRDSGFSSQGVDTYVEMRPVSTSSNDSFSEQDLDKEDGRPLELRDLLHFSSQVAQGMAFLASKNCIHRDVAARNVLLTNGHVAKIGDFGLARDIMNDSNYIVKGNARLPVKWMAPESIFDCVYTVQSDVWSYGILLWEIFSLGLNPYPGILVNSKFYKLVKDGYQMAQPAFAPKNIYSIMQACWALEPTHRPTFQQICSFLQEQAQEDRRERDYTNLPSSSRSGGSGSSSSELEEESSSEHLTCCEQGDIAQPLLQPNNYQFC

C[C@@H]1CN(c2cc(-c3n[nH]c4ccc(OC5(C)CC5)cc34)ncn2)C[C@H](C)O1 [MLi-2]
inactive: [1] 6% | [2] 3.43% | [3] -0.226% | [4] 6.91% | [5] 14.9% | [6] -3.99% | [7] 4.4% | Caspase-8 (Homo sapiens) 7% | [8] 0.974% | [9] 3% | [10] 19.4% | [11] 5.52% | [12] -0.531% | [13] -2.73%
